Results: US12251383B2, “Methods and compositions for KRAS inhibitors” (The Board of Regents of the University of Texas System, priority 2019, dated 2025)
“Also recorded” adds a separate entry of the source.

Tests used:
[1] = target: GDP-bound KRAS^WT (Homo sapiens, UniProt P01116); assay: MST binding, GDP-bound KRAS WT; conditions: GDP state
From the text: (§1) FIGS. 1A-1D show representative data for the predicted binding mode and measured affinity of disclosed compound 11 to KRAS. (FIG. 1A) Structure of the catalytic domain of KRAS used for the virtual screening. Lobe1 (residues 1-86) and lobe2 (residues 87-166) are highlighted in different colors, as well as switches 1 (residues 30-40) and 2 (residues 60-75). The location of the target allosteric pocket p1 is indicated. (FIG. 1B) Chemical structure of compound 11. (FIG. 1C) Predicted binding pose of compound 11, with the key residues that make polar or vdW contacts with the ligand labeled. (FIG. 1D) Microscale thermophoresis (MST) experiments indicating direct binding of compound 11 to KRAS, along with dissociation constants (KD) derived from the curves. Changes in fluorescence upon titration of […] KRAS with increasing concentration of compound are shown: KRAS^WT (red), KRAS^G12C (green), KRAS^G12D (purple) and KRAS^Q61M (blue), each bound to the non-hydrolyzable GTP analogue, guanylyl imidodiphosphate (GNP). The same experiments indicated no binding to GDP-bound KRAS^G12D and KRAS^WT as well as Rap1B, which was used as control. […]

[2] = target: GDP-bound KRAS^G12D (Homo sapiens, UniProt P01116, G12D); assay: MST binding, GDP-bound KRAS G12D; conditions: GDP state
From the text: as §1

[3] = target: T1, KRAS^G12D-Raf^RBD interaction (Homo sapiens, UniProt P01116, G12D); assay: Pull-down of GFP-KRAS G12D by GST-Raf RBD from cell lysates; assay type: binding
T1 construct: expressed in transfected cells; host or cells: BHK cells expressing GFP-RAS (lysate); GST-Raf RBD made in E. coli BL21 from a GEX plasmid
From the text: [formula] where P1 is polarization of free KRAS, P2 is polarization of Raf-bound KRAS, c is the total concentration of KRAS, and x the total concentration of Raf^RBD. (FIG. 2B) Amount of GFP-KRAS^G12D pulled down by GST-Raf^RBD after treatment of cell lysates with compound at the concentrations indicated (representative Westerns are shown at the top). The RBD sequence length was 1-149 and 51-131 in the fluorescence polarization and pull-down assays, respectively. (FIG. 2C) GFP fluorescence lifetime from FLIM-FRET using cells expressing GFP-KRAS^G12D alone or with RFP-Raf, with or without treatment by 1 μM compound 11. Data are shown as mean±S.E; significance estimated by one-way analysis of variance.
Pull-down. GFP-RAS with GST-tagged RAS binding domain (RBD) of cRaf^A85K (hereafter GST-Raf^RBD) pulled down to monitor RAS-Raf interaction. To prepare GST-Raf^RBD bound to agarose beads, bacteria (BL21) transfected with a previously cloned GEX plasmid were grown in selection media to OD levels of 0.5-1.0 before protein expression was initiated with IPTG (1:1000). After 4 h, the sample was centrifuged at 6000 rpm for 5 min at 4° C., the pellet was re-suspended with PBS containing 5 mM EGTA, 1% Triton X, PIC 1:50 and PMSF 1:100, and cells were lysed with cycles of freezing and thawing. The lysate was sonicated to breakup DNA, and pelleted. […]

| Structure (SMILES) | binding (in words) [1] | binding (in words) [2] | decrease in GFP-KRAS^G12D levels pulled down ([3]; at 1 μM) [%] | effect on KRAS^G12D-Raf^RBD interaction (pull-down) ([3]; 10 μM) |
| --- | --- | --- | --- | --- |
| Cc1nn2c(N3CCN(CCO)CC3)cc(-c3ccccc3)nc2c1-c1ccccc1 [Compound 11, 2-[4-(8-methyl-3,9-diphenyl-2,6,7-triazabicyclo[4.3.0]nona-2,4,7,9-tetraen-5-yl)piperazin-1-yl]ethanol] | no binding; also recorded: does not bind | no binding | > 50 |  |
| Cc1cc(N2CCN(CCO)CC2)n2nc(C)c(-c3ccccc3)c2n1 [Compound 13] | does not bind | does not bind |  | disrupts |
